Measurements published in BindingDB's records for doi:10.1021/jm990383f (Upjohn, 2000).

How the values were obtained:
[1] = molecular target: T1, Gag-Pol polyprotein [588-1027]/[588-1147] (Human immunodeficiency virus 1, UniProt P04585); assay: HIV-1 RT Assay; conditions: pH 8.3; 28 °C
T1 construct: 588-1027; 588-1147
Source text: (§1) The IC50 of reverse transcriptase is the concentration that inhibits 50% of recombinant HIV-1 RT RNA-directed DNA polymerase activity in vitro.

[2] = molecular target: T2, Gag-Pol polyprotein [588-1027,P823L]/[588-1147,P823L] (Human immunodeficiency virus 1, UniProt P04585, P823L); assay: HIV-1 RT Assay; conditions: pH 8.3; 28 °C
T2 construct: 588-1027; 588-1147
Source text: as §1

CCc1c(CCO)nn(-c2ccccc2)c1-c1ccccc1 [1,5-Diphenyl-3-(2-hydroxyethyl)-4-ethylpyrazole]
IC50 [1]: > 50 µM

C#CCc1c(C)nn(-c2ccccc2)c1-c1ccccc1 [3-methyl-1,5-diphenyl-4-(prop-2-yn-1-yl)-1H-pyrazole]
IC50 [1]: 13.4 µM
IC50 [2]: 1.54 µM
